pEC50, pIC50: −log10 of the molar value.
Assay: Evaluation of Antiviral Activity of Compounds Against Human Coronavirus (HCov) 229E and OC43 in the Cytopathic Effect (CPE) Assays: Compounds were assayed using standard methods against multiple coronaviral strains, including HCoV 229E and OC43 strains.

SMILES | pEC50 | pIC50
N#C[C@H](C[C@@H]1CCCNC1=O)NC(=O)[C@@H]1CC2(CCCCC2)CN1C(=O)c1cc2ccc(Cl)cc2[nH]1 (single isomer, unassigned) | > 5.70 | > 5.70
COc1cccc2[nH]c(C(=O)N[C@@H](CC3CC3)C(=O)N[C@@]3(C#N)C[C@@H]4CC[C@@H]3[C@H]3C(=O)NC(=O)[C@@H]43)cc12 (single isomer, unassigned; isomer 1) | – | < 4.52
CCCOc1cccc2[nH]c(C(=O)N[C@@H](CC(C)C)C(=O)N[C@H](C#N)C[C@@H]3CCNC3=O)cc12 | > 5.70 | –
N#C[C@H](C[C@@H]1CCCNC1=O)NC(=O)[C@H]1CC2(CN1C(=O)c1cc3cccc(Cl)c3[nH]1)CC(F)(F)C2 (single isomer, unassigned) | > 5.70 | > 5.70
COc1cccc2[nH]c(C(=O)N3CC4(CCC4)C[C@@H]3C(=O)N[C@H](C#N)C[C@@H]3CCCNC3=O)cc12 (single isomer, unassigned; isomer 2) | > 5.70 | –
